Test results taken from the NIST ThermoML archive (doi:10.1016/j.fluid.2005.08.006).
± gives the expanded uncertainty stated by the source.

Assay: refractive index (Na D-line) (dimensionless)
Details: 293.15 K; 101.33 kPa; Liquid; Standard Abbe refractometry

Row | refractive index | Compound
1 | 1.3933 ± 0.0007 | CC(C)C(=O)O [2-methylpropanoic acid]
2 | 1.3612 ± 0.0007 | CCO [ethanol]
3 | 1.3749 ± 0.0007 | CCCCCC [hexane]
4 | 1.4087 ± 0.0007 | CCCCC(=O)O [pentanoic acid]

The remaining lines, values behind:

Row | Compound | refractive index
5 | C1CCCCC1 [cyclohexane] | 1.4265 ± 0.0007
6 | CCCCCCCCCC [decane] | 1.4105 ± 0.0007
7 | CCC(=O)O [propanoic acid] | 1.381 ± 0.0007
